Laboratory results reported in ChEMBL document CHEMBL3352076, “Synthesis of novel triazole-linked mefloquine derivatives: biological evaluation against Plasmodium falciparum” (Bioorg Med Chem Lett, 2014).
pIC50: −log10 of the molar value.

Tested on: Plasmodium falciparum
Test: Antimalarial activity against chloroquine-sensitive Plasmodium falciparum NF54
Assay type: functional, organism-based

Question: `FC(F)(F)c1cc(-n2cc(CN3CCN(C4C5CC6CC(C5)CC4C6)CC3)nn2)c2cccc(C(F)(F)F)c2n1` (stereo unspecified) was tested. Which pIC50 did it give?
Answer: 4.85

Question: How did the pIC50 turn out when `CC(C)(C)NCc1cn(-c2cc(C(F)(F)F)nc3c(C(F)(F)F)cccc23)nn1` was run?
Answer: 5.55

Question: `FC(F)(F)c1cc(-n2cc(CN3CCN(Cc4ccncc4)CC3)nn2)c2cccc(C(F)(F)F)c2n1` was tested. Which pIC50 did it give?
Answer: 4.97

Question: How did the pIC50 turn out when `FC(F)(F)c1cc(-n2cc(CN3CCN(C4CCCCC4)CC3)nn2)c2cccc(C(F)(F)F)c2n1` was run?
Answer: 4.50

Question: With `FC(F)(F)c1cc(-n2cc(CNC3C4CC5CC(C4)CC3C5)nn2)c2cccc(C(F)(F)F)c2n1` (stereo unspecified) as the compound, how does the pIC50 read?
Answer: 6.00

Question: How did the pIC50 turn out when `FC(F)(F)c1cc(-n2cc(CN(Cc3ccccc3)Cc3ccccc3)nn2)c2cccc(C(F)(F)F)c2n1` was run?
Answer: 5.04

Question: How did the pIC50 turn out when `FC(F)(F)c1cc(-n2cc(CN(C3CCCCC3)C3CCCCC3)nn2)c2cccc(C(F)(F)F)c2n1` was run?
Answer: 5.49

Question: With `FC(F)(F)c1cc(-n2cc(CN3CCN(Cc4ccccc4)CC3)nn2)c2cccc(C(F)(F)F)c2n1` as the compound, how does the pIC50 read?
Answer: 4.59

Question: `FC(F)(F)c1cc(-n2cc(CN3CCN(Cc4c[nH]c5ccccc45)CC3)nn2)c2cccc(C(F)(F)F)c2n1` was tested. Which pIC50 did it give?
Answer: 5.89

Question: With `CC(C)N(Cc1cn(-c2cc(C(F)(F)F)nc3c(C(F)(F)F)cccc23)nn1)C(C)C` as the compound, how does the pIC50 read?
Answer: 5.32

Question: With `O[C@@H](c1cc(C(F)(F)F)nc2c(C(F)(F)F)cccc12)[C@H]1CCCCN1` [(S,R)-MEFLOQUINE] as the compound, how does the pIC50 read?
Answer: 4.70
